Assay results from US20090088463A1, “Pyrazoles Useful in the Treatment of Inflammation” (priority 2005, published 2009).

Molecular target: T1, purified human 15-lipoxygenase (Homo sapiens, UniProt P16050)
T1 sequence (P16050 1-662): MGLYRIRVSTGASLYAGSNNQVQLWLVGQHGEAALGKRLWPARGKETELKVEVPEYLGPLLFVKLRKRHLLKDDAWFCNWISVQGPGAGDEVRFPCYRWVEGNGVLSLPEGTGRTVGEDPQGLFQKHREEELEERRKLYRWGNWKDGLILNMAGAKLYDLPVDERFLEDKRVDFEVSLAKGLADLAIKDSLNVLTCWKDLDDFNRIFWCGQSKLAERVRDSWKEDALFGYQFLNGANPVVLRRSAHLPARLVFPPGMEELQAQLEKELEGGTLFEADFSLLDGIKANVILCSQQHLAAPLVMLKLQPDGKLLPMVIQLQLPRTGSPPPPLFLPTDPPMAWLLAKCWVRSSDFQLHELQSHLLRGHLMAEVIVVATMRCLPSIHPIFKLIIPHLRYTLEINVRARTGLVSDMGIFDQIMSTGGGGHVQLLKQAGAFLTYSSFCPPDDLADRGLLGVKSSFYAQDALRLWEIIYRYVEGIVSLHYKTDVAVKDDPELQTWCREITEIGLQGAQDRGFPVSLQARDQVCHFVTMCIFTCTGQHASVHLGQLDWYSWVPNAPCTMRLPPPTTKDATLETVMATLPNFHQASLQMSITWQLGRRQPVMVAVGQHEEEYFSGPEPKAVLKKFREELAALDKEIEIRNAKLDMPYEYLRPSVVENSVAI
Assay: 15-lipoxygenase inhibition assay (arachidonic acid oxidation, HPLC readout)
Format: biochemical
Settings: arachidonic acid substrate, room temperature
Description: The assay employed takes advantage of the ability of lipoxygenases to oxidize polyunsaturated fatty acids, containing a 1,4-cis-pentadiene configuration, to their corresponding hydroperoxy or hydroxyl derivatives. In this particular assay, the lipoxygenase was a purified human 15-lipoxygenase and the fatty acid was arachidonic acid. The assay is performed at room temperature (20-22° C.) and the following are added to each well in a 96-well microtiter plate:
a) 35 μL phosphate buffered saline (PBS) (pH 7.4); b) inhibitor (i.e. compound) or vehicle (0.5 μl DMSO); c) 10 μL of a 10× concentrated solution of 15-lipoxygenase in PBS. The plates are incubated for 5 minutes at room temperature; d) 5 μl of 0.125 mM arachidonic acid in PBS. The plate is then incubated for 10 minutes at room temperature; e) the enzymatic reaction is terminated by the addition of 100 μl methanol; and
f) the amount of 15-hydroperoxy-eicosatetraenoic acid or 15-hydroxy-eicosatetraenoic acid is measured by reverse phase HPLC.

IC50 [nM]	Compound
1100	O=C(Nc1cc(Cl)ccc1Cl)c1cc[nH]n1 [Example 13, N-(2,5-Dichlorophenyl)pyrazole-3-carboxamide]
750	Cc1cc(Cl)ccc1NC(=O)c1cc[nH]n1 [Example 9, N-(4-Chloro-2-methylphenyl)pyrazole-3-carboxamide]

More lines, now with the values behind:

Compound	IC50 [nM]
Cc1ccc(NC(=O)c2cc[nH]n2)c(C)c1 [Example 14, N-(2,4-Dimethylphenyl)pyrazole-3-carboxamide]	840
O=C(Nc1ccc(F)c(F)c1F)c1cc[nH]n1 [Example 7, N-(2,3,4-Trifluorophenyl)pyrazole-3-carboxamide]	1800
O=C(Nc1ccc(OC(F)(F)F)cc1Br)c1cc[nH]n1 [Example 2, N-(2-Bromo-4-trifluoromethoxyphenyl)pyrazole-3-carboxamide]	160
O=C(Nc1ccc(Br)cc1OC(F)(F)F)c1cc[nH]n1 [Example 15, N-(4-Bromo-2-trifluoromethoxyphenyl)pyrazole-3-carboxamide]	140
